Residue numbers refer to the chain shown, from its start. pEC50: −log10 of the molar value.
What was measured:
hPKG II 1–762 = biological target: T1, hPKG II 1–762 (Homo sapiens, UniProt Q13237); assay: Microfluidic mobility-shift kinase activation assay, PKG II; conditions: for Activation constant Ka ± SEM: full-length PKG II, microfluidic mobility shift assay; for Isotype selectivity in activating, PKG II: selective in activating PKG II
T1 sequence (Q13237 1-762): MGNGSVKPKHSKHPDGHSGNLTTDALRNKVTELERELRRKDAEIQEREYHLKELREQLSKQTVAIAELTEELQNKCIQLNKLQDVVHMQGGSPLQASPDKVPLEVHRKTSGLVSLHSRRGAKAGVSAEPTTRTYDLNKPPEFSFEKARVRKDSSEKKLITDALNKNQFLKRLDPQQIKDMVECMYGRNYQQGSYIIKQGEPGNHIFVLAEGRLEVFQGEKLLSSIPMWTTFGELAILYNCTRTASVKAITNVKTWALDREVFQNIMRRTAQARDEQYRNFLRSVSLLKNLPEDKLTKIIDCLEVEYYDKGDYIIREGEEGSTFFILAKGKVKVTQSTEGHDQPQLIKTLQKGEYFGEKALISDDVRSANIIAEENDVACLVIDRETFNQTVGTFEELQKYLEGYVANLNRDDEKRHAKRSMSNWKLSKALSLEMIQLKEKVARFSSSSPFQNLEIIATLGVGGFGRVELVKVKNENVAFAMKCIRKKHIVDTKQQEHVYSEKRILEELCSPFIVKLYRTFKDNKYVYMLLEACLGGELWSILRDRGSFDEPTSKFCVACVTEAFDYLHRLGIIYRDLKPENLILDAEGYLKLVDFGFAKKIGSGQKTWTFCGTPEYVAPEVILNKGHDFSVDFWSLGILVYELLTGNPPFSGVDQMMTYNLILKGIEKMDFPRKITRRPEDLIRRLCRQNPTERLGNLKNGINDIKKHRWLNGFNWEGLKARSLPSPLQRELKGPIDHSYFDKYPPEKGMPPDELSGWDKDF

PKG Iβ = conditions: read-out: Activation constant (previous activation data); cited from earlier work
hPKG Iβ 1–351 G182E = biological target: T2, hPKG Iβ 1–351 G182E (Homo sapiens, UniProt Q13976, G167E); assay: Competitive SPR, PKG Iβ R domain with site A disabled; type: binding; conditions: own affinity data
T2 sequence (Q13976 1-351 isoform Q13976-2 G182E): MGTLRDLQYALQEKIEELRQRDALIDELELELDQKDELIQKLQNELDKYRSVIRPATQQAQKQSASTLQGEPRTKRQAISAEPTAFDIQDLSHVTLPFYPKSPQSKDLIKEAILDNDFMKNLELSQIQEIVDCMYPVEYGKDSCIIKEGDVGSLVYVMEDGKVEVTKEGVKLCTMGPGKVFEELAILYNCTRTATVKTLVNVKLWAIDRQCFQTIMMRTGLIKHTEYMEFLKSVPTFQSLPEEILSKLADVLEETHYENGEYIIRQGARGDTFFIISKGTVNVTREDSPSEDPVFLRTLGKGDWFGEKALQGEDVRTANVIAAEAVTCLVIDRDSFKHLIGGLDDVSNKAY

PKG I = PKG I preincubated with [3H]cGMP, cited from earlier work
hPKG Iβ 5–676 = biological target: T3, hPKG Iβ 5–676 (Homo sapiens, UniProt Q13976); assay: Microfluidic mobility-shift kinase activation assay, PKG Iβ; conditions: for Activation constant Ka ± SEM: full-length PKG Iβ, microfluidic mobility shift assay
T3 sequence (Q13976 5-686 isoform Q13976-2): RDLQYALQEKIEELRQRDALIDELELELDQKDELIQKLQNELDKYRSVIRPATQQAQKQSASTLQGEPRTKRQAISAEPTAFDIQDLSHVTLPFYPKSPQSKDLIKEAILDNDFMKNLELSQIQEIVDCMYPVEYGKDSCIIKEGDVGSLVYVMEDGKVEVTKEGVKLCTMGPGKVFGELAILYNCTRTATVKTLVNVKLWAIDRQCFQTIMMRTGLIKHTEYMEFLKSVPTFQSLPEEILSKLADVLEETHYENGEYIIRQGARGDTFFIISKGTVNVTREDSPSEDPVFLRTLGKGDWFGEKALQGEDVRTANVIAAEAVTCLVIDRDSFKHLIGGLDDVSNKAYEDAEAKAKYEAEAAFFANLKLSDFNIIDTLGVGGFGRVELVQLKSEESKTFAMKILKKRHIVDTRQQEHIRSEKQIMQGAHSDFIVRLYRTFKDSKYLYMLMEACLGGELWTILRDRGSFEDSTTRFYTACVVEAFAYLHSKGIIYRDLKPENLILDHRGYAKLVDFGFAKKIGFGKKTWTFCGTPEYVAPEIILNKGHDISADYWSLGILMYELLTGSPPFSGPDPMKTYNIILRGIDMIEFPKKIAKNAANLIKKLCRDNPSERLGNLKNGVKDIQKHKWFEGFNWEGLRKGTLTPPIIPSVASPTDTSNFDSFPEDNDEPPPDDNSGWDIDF

hPKG Iβ 1–351 wt = biological target: T4, hPKG Iβ 1–351 wt (Homo sapiens, UniProt Q13976); assay: Competitive SPR
T4 sequence (Q13976 1-351 isoform Q13976-2): T2 sequence (Q13976 1-351 isoform Q13976-2 G182E) with E182G

PKG II = conditions: read-out: Activation constant (previous activation data); cited from earlier work
hPKG Iβ 1–351 G306E = biological target: T5, hPKG Iβ 1–351 G306E (Homo sapiens, UniProt Q13976, G291E); assay: Competitive SPR, PKG Iβ R domain with site B disabled; type: binding; conditions: own affinity data
T5 sequence (Q13976 1-351 isoform Q13976-2 G306E): T2 sequence (Q13976 1-351 isoform Q13976-2 G182E) with E182G, G306E

hPKG II 41–418 wt = biological target: T6, hPKG II 41–418 wt (Homo sapiens, UniProt Q13237); assay: Competitive SPR; type: binding; conditions: for Isotype selectivity in binding, PKG II: selective in binding PKG II
T6 sequence (Q13237 41-418): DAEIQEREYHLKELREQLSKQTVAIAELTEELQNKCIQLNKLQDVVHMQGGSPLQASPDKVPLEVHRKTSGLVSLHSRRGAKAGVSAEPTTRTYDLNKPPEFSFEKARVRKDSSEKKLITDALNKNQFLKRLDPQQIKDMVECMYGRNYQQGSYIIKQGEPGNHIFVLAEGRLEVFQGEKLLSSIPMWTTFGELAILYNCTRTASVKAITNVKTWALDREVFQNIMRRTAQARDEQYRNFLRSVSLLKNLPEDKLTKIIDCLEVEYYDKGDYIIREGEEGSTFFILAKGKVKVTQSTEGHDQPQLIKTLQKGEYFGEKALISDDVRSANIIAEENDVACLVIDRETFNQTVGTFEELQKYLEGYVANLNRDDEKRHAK

hPKG II 41–418 G356E = biological target: T7, hPKG II 41–418 G356E (Homo sapiens, UniProt Q13237, G356E); assay: Competitive SPR, PKG II R domain with site B disabled; type: binding
T7 sequence (Q13237 41-418 G356E): T6 sequence (Q13237 41-418) with G316E

Row | Compound | Activation constant Ka ± SEM (hPKG II 1–762) | pEC50 (PKG Iβ) | Binding to B site, fold stronger than cGMP (hPKG Iβ 1–351 G182E) | Binding to B site, fold stronger than cGMP (PKG I; rapidly exchanging site) [fold] | Activation constant Ka ± SEM (hPKG Iβ 5–676) | Isotype selectivity in activating, PKG Iβ (hPKG Iβ 5–676; selective in activating PKG Iβ) | Isotype selectivity in binding, PKG Iβ (hPKG Iβ 1–351 wt; selective in binding PKG Iβ) | Selectivity for PKG Iβ (EC50 compared to cGMP) (hPKG Iβ 1–351 wt; wild type R domain, SPR) | Isotype selectivity in activating, PKG II (hPKG II 1–762) | pEC50 (PKG II) | Binding to A site, fold stronger than cGMP (hPKG Iβ 1–351 G306E) | Isotype selectivity in binding, PKG II (hPKG II 41–418 wt) | Binding to slowly exchanging site (A site), fold stronger than cGMP (PKG I) [fold] | Selectivity for PKG II (EC50 compared to cGMP) (hPKG II 41–418 wt; wild type R domain, SPR) | Reduction of EC50 at A site of PKG II compared to cGMP (hPKG II 41–418 G356E) [fold]
1 | O=c1c2ncn([C@@H]3O[C@@H]4COP(=O)(O)O[C@H]4[C@H]3O)c2nc2[nH]c(-c3ccccc3)cn12 [PET-cGMP, β-phenyl-1,N2-ethenoguanosine 3′,5′-monophosphate] | 225 ± 13 nM (3) | 7.70 | over 50 fold | 10 | 18 ± 2 nM (3) | ~ 10 fold | 40–50 fold | ~ 40 fold | – | – | – | – | – | – | –
2 | Nc1nc2c(nc(Br)n2[C@@H]2O[C@@H]3COP(=O)(O)O[C@H]3[C@H]2O)c(=O)[nH]1 [8-Br-cGMP, 8-bromoguanosine 3′,5′-cyclic monophosphate] | – | – | – | – | 206 ± 13 nM (3) | – | – | – | ~ 4 fold | 7.60 | over 2 fold | ~ 10 fold | 3.4 | – | –
3 | Nc1nc2c(ncn2[C@@H]2O[C@@H]3COP(=O)(O)O[C@H]3[C@H]2O)c(=O)[nH]1 [cGMP, Cyclic GMP] | – | 6.60 | – | – | – | – | – | – | – | 6.44 to 7.40 | – | – | – | – | –
4 | Nc1nc2c(nc(Sc3ccc(Cl)cc3)n2[C@@H]2O[C@@H]3COP(=O)(O)O[C@H]3[C@H]2O)c(=O)[nH]1 [8-pCPT-cGMP, 8-(4-chlorophenylthio)guanosine-3′-5′-cyclic monophosphate] | 22 ± 3 nM (4) | 6.36 | – | – | 249 ± 17 nM (3) | – | – | – | ~ 10 fold | – | – | 40–50 fold | – | ~ 19 fold | > 50

Reference: PMC5896746 (ACS chemical biology, 2017)
